According to ChEMBL document CHEMBL4610120, “New Broad-Spectrum Antibiotics Containing a Pyrrolobenzodiazepine Ring with Activity against Multidrug-Resistant Gram-Negative Bacteria” (J Med Chem, 2020):
≈ marks a conversion by molar mass, not a printed value. Calls of active or inactive are those of the source. No cut-off for these calls is given here.

How the values were obtained:
Staphylococcus aureus [1] = assay: Antibacterial activity against methicillin resistant Staphylococcus aureus NCTC 13616 by microdilution broth method; format: functional
DNA [2] = assay: Stabilization of 5'-FAM-TAT-AGA-TAT-AGA-TAT-TTT-ATA-TCT-ATA-TCT-ATA-3'-TAMRA DNA (unknown origin) assessed as reduction in change in melting temperature at 1:1 to 5:1 ligand to DNA ratio measured after 3 hrs by FRET-based assay relative to control; format: ADME, nucleic-acid assay
Pseudomonas aeruginosa = assay: Antimicrobial activity against Pseudomonas aeruginosa PAO1 by microdilution broth method; format: functional
Staphylococcus aureus [3] = assay: Antibacterial activity against methicillin sensitive Staphylococcus aureus NCTC 6571 by microdilution broth method; format: functional
Enterococcus faecalis [4] = assay: Antibacterial activity against vancomycin sensitive Enterococcus faecalis NCTC 775 by microdilution broth method; format: functional
[5] = Cytotoxicity against human WI38 cells assessed as cell viability at 20 uM measured after 24 hrs by MTT assay relative to control; format: cell-based, WI-38; conditions: read-out: Activity
Staphylococcus aureus [6] = assay: Antibacterial activity against methicillin resistant Staphylococcus aureus NCTC 13277 by microdilution broth method; format: functional
DNA [7] = assay: Stabilization of 5'-FAM-TAT-ATA-TAG-ATA-TTT-TTT-TAT-CTA-TAT-ATA-3'-TAMRA DNA (unknown origin) assessed as reduction in change in melting temperature at 1:1 to 5:1 ligand to DNA ratio measured after 3 hrs by FRET-based assay relative to control; format: ADME, nucleic-acid assay
Acinetobacter baumannii [8] = assay: Antimicrobial activity against Acinetobacter baumannii ATCC 17978 by microdilution broth method; format: functional
Enterococcus faecium = assay: Antibacterial activity against vancomycin resistant Enterococcus faecium NCTC 12204 by microdilution broth method; format: functional
Enterococcus faecalis [9] = assay: Antibacterial activity against vancomycin resistant Enterococcus faecalis NCTC 12201 by microdilution broth method; format: functional
Acinetobacter baumannii [10] = assay: Antimicrobial activity against multidrug-resistant Acinetobacter baumannii AYE by microdilution broth method; format: functional
[11] = molecular target: T1, Cell division inhibitor SulA (Escherichia coli K-12) (UniProt P0AFZ5); assay: Induction of Escherichia coli K12 MG1655 sulA promotor measured at 30 mins interval for 20 hrs by fluorescence assay relative to control; conditions: Escherichia coli str. K-12 substr. MG1655
T1 sequence (whole entry): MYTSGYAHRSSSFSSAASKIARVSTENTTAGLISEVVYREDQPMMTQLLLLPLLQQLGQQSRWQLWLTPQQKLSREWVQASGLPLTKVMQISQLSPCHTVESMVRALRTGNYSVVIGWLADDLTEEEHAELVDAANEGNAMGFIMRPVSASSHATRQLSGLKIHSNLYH

[12] = molecular target: T2, LexA repressor (Escherichia coli) (UniProt P0A7C2); assay: Induction of Escherichia coli K12 MG1655 lexA promotor measured at 30 mins interval for 20 hrs by fluorescence assay relative to control; conditions: Escherichia coli str. K-12 substr. MG1655
T2 sequence (whole entry): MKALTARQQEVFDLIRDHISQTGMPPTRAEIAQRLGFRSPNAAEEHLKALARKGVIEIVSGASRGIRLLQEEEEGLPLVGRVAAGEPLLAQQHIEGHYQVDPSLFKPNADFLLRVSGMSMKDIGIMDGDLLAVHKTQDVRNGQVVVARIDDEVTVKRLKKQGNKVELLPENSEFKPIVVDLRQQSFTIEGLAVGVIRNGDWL

[13] = molecular target: T3, DNA repair protein RecN (Escherichia coli) (UniProt P05824); assay: Induction of Escherichia coli K12 MG1655 recN promotor measured at 30 mins interval for 20 hrs by fluorescence assay relative to control; conditions: Escherichia coli str. K-12 substr. MG1655
T3 sequence (whole entry): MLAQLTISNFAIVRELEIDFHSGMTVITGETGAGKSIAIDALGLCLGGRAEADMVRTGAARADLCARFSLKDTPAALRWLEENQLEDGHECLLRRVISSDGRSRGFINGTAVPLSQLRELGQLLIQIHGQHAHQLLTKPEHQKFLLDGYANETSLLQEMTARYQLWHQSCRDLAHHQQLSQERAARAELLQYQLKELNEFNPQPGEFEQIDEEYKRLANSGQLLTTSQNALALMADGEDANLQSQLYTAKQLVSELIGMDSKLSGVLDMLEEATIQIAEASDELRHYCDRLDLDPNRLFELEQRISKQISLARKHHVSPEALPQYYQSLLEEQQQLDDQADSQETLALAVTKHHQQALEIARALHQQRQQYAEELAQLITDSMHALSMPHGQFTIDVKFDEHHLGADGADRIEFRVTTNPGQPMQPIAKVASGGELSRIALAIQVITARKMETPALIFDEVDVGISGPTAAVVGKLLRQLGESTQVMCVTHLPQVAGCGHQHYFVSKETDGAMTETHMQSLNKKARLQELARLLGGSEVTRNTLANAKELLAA

[14] = molecular target: T4, Protein RecA (Escherichia coli K-12) (UniProt P0A7G6); assay: Induction of Escherichia coli K12 MG1655 recA promotor measured at 30 mins interval for 20 hrs by fluorescence assay relative to control; conditions: Escherichia coli str. K-12 substr. MG1655
T4 sequence (whole entry): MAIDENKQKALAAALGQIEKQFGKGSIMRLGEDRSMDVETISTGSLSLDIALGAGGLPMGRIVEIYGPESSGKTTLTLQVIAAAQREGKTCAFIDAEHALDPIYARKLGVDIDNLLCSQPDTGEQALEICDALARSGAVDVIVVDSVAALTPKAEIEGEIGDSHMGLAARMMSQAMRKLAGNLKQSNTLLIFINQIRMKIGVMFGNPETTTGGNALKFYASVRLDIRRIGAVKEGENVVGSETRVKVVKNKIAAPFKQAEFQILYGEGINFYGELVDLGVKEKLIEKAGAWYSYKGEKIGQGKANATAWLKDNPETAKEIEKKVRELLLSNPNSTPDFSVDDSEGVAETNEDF

[15] = Selectivity ratio of cytotoxicity against human WI38 cells to MIC for multidrug-resistant Acinetobacter baumannii AYE; format: toxicity, cell-based
[16] = Selectivity ratio of cytotoxicity against human WI38 cells to MIC for methicillin resistant Staphylococcus aureus NCTC 13277; format: toxicity, cell-based
[17] = Selectivity ratio of cytotoxicity against human WI38 cells to MIC for Pseudomonas aeruginosa PAO1; format: toxicity, cell-based
[18] = Selectivity ratio of cytotoxicity against human WI38 cells to MIC for methicillin sensitive Staphylococcus aureus NCTC 6571; format: toxicity, cell-based
[19] = Selectivity ratio of cytotoxicity against human WI38 cells to MIC for vancomycin resistant Enterococcus faecium NCTC 12204; format: toxicity, cell-based
[20] = Selectivity ratio of cytotoxicity against human WI38 cells to MIC for multidrug-resistant Pseudomonas aeruginosa NCTC 13437; format: toxicity, cell-based
[21] = Selectivity ratio of cytotoxicity against human WI38 cells to MIC for Acinetobacter baumannii ATCC 17978; format: toxicity, cell-based
[22] = Selectivity ratio of cytotoxicity against human WI38 cells to MIC for vancomycin sensitive Enterococcus faecalis NCTC 775; format: toxicity, cell-based
[23] = Selectivity ratio of cytotoxicity against human WI38 cells to MIC for vancomycin resistant Enterococcus faecalis NCTC 12201; format: toxicity, cell-based
[24] = Selectivity ratio of cytotoxicity against human WI38 cells to MIC for multidrug-resistant Klebsiella pneumoniae NCTC 13368; format: toxicity, cell-based
[25] = Selectivity ratio of cytotoxicity against human WI38 cells to MIC for Klebsiella pneumoniae M6; format: toxicity, cell-based
[26] = Selectivity ratio of cytotoxicity against human WI38 cells to MIC for methicillin resistant Staphylococcus aureus NCTC 13616; format: toxicity, cell-based

SMILES | MIC (Staphylococcus aureus [1]) [µg/mL] | fold change (FC) (DNA [2]) | MIC (Staphylococcus aureus [3]) [µg/mL] | viability at 24 h, 20 µM [5] [%] | MIC (Staphylococcus aureus [6]) [µg/mL] | fold change (FC) (DNA [7]) | MIC (Acinetobacter baumannii [8]) [µg/mL] | MIC (Enterococcus faecium) [µg/mL] | MIC (Enterococcus faecalis [9]) [µg/mL] | selectivity ratio [15] | selectivity ratio [16] | selectivity ratio [17] | selectivity ratio [18] | selectivity ratio [19] | selectivity ratio [20] | selectivity ratio [21] | selectivity ratio [22] | selectivity ratio [23] | selectivity ratio [24] | selectivity ratio [25] | further results
COC(=O)c1cc(NC(=O)c2cc3cc(NC(=O)c4cc(NC(=O)CCCOc5cc6c(cc5OC)C(=O)N5CCC[C@H]5C=N6)cn4C)ccc3s2)cn1C | 0.5 (≈ 0.653 µM) | 3 to 4 | ≤ 0.125 | 32 | 1 (≈ 1.31 µM) | 3 to 4 | 64 (≈ 83.6 µM) | ≤ 0.125 | ≤ 0.125 | – | – | – | – | – | – | – | – | – | – | – | MIC (Pseudomonas aeruginosa): > 128 µg/mL; MIC (Enterococcus faecalis [4]): ≤ 0.125 µg/mL; MIC (Acinetobacter baumannii [10]): 64 µg/mL (≈ 83.6 µM)
COc1c(N2C[C@@H]3CCCN[C@@H]3C2)c(F)cc2c(=O)c(C(=O)O)cn(C3CC3)c12 | – | – | – | – | – | – | – | – | – | – | – | – | – | – | – | – | – | – | – | – | fold change (FC) [11]: 17 to 41; fold change (FC) [12]: 5 to 13; fold change (FC) [13]: 14 to 32; fold change (FC) [14]: 20 to 35
CCn1cc(C(=O)O)c(=O)c2cc(F)c(N3CCNCC3)cc21 | – | – | – | – | – | – | – | – | – | – | – | – | – | – | – | – | – | – | – | – | fold change (FC) [11]: 17 to 41; fold change (FC) [12]: 5 to 13; fold change (FC) [13]: 14 to 32; fold change (FC) [14]: 20 to 35
CC1(C)S[C@@H]2[C@H](NC(=O)[C@H](N)c3ccccc3)C(=O)N2[C@H]1C(=O)O | – | – | – | – | – | – | – | – | – | – | – | – | – | – | – | – | – | – | – | – | Activity [11]: inactive; Activity [12]: inactive; Activity [13]: inactive; Activity [14]: inactive
C[C@H]1COc2c(N3CCN(C)CC3)c(F)cc3c(=O)c(C(=O)O)cn1c23 | – | – | – | – | – | – | – | – | – | – | – | – | – | – | – | – | – | – | – | – | fold change (FC) [11]: 17 to 41; fold change (FC) [12]: 5 to 13; fold change (FC) [13]: 14 to 32; fold change (FC) [14]: 20 to 35
CCN(CC)C(=O)c1cc2cc(NC(=O)c3cc(NC(=O)CCCOc4cc5c(cc4OC)C(=O)N4CCC[C@H]4C=N5)cn3C)ccc2s1 | 1 (≈ 1.46 µM) | 3 to 4 | – | > 85 | 1 (≈ 1.46 µM) | 3 to 4 | 2 (≈ 2.92 µM) | 1 (≈ 1.46 µM) | 0.5 (≈ 0.73 µM) | 10 | 100 | 10 | 100 | 100 | 10 | 10 | 100 | 100 | 10 | 10 | MIC (Acinetobacter baumannii [10]): 2 µg/mL (≈ 2.92 µM); selectivity ratio [26]: 100
COc1cc2c(cc1OCCCC(=O)Nc1cc(C(=O)Nc3ccc4oc(C(=O)N5CCOCC5)cc4c3)n(C)c1)N=C[C@@H]1CCCN1C2=O | ≤ 0.125 | 3 to 4 | ≤ 0.125 | > 85 | – | 3 to 4 | 8 (≈ 11.7 µM) | ≤ 0.125 | ≤ 0.125 | 10 | 100 | 10 | 100 | 100 | 10 | 10 | 100 | 100 | 10 | 10 | MIC (Pseudomonas aeruginosa): > 128 µg/mL; MIC (Enterococcus faecalis [4]): ≤ 0.125 µg/mL; selectivity ratio [26]: 100
COc1cc2c(cc1OCCCC(=O)Nc1cc(C(=O)Nc3ccc4oc(C(=O)N5CCCCC5)cc4c3)n(C)c1)N=C[C@@H]1CCCN1C2=O | 0.25 (≈ 0.367 µM) | 3 to 4 | ≤ 0.125 | > 85 | 0.5 (≈ 0.734 µM) | 3 to 4 | 2 (≈ 2.94 µM) | ≤ 0.125 | ≤ 0.125 | 10 | 100 | 10 | 100 | 100 | 10 | 10 | 100 | 100 | 10 | 10 | selectivity ratio [26]: 100
COc1cc2c(cc1OCCCC(=O)Nc1cc(C(=O)Nc3ccc4sc(C(=O)N5CCSCC5)cc4c3)n(C)c1)N=C[C@@H]1CCCN1C2=O | ≤ 0.125 | 3 to 4 | ≤ 0.125 | > 85 | ≤ 0.125 | 3 to 4 | 2 (≈ 2.8 µM) | ≤ 0.125 | ≤ 0.125 | 10 | 100 | 10 | 100 | 100 | 10 | 10 | 100 | 100 | 10 | 10 | MIC (Pseudomonas aeruginosa): 64 µg/mL (≈ 89.5 µM); MIC (Enterococcus faecalis [4]): ≤ 0.125 µg/mL; selectivity ratio [26]: 100
COc1cc2c(cc1OCCCC(=O)Nc1cc(C(=O)Nc3ccc4sc(C(=O)N5CCOCC5)cc4c3)n(C)c1)N=C[C@@H]1CCCN1C2=O | ≤ 0.125 | 3 to 4 | ≤ 0.125 | > 85 | 0.5 (≈ 0.716 µM) | 3 to 4 | 8 (≈ 11.4 µM) | ≤ 0.125 | ≤ 0.125 | 10 | 100 | 10 | 100 | 100 | 10 | 10 | 100 | 100 | 10 | 10 | MIC (Pseudomonas aeruginosa): 64 µg/mL (≈ 91.6 µM); MIC (Enterococcus faecalis [4]): ≤ 0.125 µg/mL; selectivity ratio [26]: 100
COc1cc2c(cc1OCCCC(=O)Nc1cc(C(=O)Nc3ccc4sc(C(=O)N5CCCCC5)cc4c3)n(C)c1)N=C[C@@H]1CCCN1C2=O | 0.5 (≈ 0.718 µM) | 3 to 4 | ≤ 0.125 | > 85 | 1 (≈ 1.44 µM) | 3 to 4 | 8 (≈ 11.5 µM) | ≤ 0.125 | ≤ 0.125 | 10 | 100 | 10 | 100 | 100 | 10 | 10 | 100 | 100 | 10 | 10 | selectivity ratio [26]: 100
